pIC50: −log10 of the molar value.
Target: T1, chicken gizzard smooth muscle myosin subfragment-1 chemically crosslinked to cardiac or skeletal actin (Gallus gallus, UniProt P10587)
T1 construct: chicken gizzard smooth muscle myosin subfragment-1; from tissue; host or cells: chicken gizzard
Experiment: Smooth muscle myosin ATPase dose response assay (pyruvate kinase/horseradish peroxidase/pyruvate oxidase-coupled, amplex red fluorescence)
Format: biochemical
Conditions: read-out: IC50 Arithmetic Mean
Outline: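 Chicken gizzard myosin S1 crosslinked to cardiac or skeletal actin, titrated to a set hydrolysis rate; 0.15 mM ATP, 12 mM PIPES pH 7.00, 100 mM KCl, 2 mM MgCl2. Pyruvate kinase/pyruvate oxidase/HRP coupling with amplex red fluorescence; IC50 from 4-parameter fit.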

T1 sequence (P02607 2-151): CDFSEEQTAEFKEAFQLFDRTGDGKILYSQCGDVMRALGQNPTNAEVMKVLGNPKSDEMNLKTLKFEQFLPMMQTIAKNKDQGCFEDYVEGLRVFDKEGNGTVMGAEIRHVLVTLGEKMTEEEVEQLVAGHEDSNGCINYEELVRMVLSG
T1 sequence (P10587 84-789): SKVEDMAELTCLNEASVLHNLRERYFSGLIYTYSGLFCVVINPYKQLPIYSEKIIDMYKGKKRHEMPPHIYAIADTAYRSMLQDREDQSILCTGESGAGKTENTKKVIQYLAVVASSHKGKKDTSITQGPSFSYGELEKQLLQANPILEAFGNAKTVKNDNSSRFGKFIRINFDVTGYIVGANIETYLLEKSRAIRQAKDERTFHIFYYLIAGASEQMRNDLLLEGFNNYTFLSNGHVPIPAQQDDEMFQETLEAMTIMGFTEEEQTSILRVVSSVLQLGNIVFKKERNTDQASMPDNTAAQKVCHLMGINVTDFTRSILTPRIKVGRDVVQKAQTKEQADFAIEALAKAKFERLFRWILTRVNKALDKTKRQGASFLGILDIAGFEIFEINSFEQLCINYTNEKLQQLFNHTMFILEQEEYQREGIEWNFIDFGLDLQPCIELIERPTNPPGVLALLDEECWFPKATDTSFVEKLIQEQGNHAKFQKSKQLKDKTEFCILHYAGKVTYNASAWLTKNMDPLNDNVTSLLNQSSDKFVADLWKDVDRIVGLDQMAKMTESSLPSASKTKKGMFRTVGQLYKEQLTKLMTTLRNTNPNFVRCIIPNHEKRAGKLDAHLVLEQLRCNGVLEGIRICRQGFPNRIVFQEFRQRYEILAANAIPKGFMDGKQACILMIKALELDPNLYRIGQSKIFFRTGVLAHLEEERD

Compound	pIC50
CN(C)CCNC(=O)c1ccc(-c2ccccc2C#N)nc1NCCc1cccc(F)c1 [N-[2-(dimethylamino)ethyl](6-(2-cyanophenyl)-2-{[2-(3-fluorophenyl)ethyl]amino}(3-pyridyl))carboxamide]	5.37
CNC(=O)c1ccc(-c2ccccc2)nc1NCCc1ccccc1 [N-methyl{6-phenyl-2-[(2-phenylethyl)amino](3-pyridyl)}carboxamide]	4.73
O=C(NC[C@H]1CCCN1)c1ccc(-c2cn[nH]c2)nc1NCCc1cccc(F)c1 [N-[((2R)pyrrolidin-2-yl)methyl](2-{[2-(3-fluorophenyl)ethyl]amino}-6-pyrazol-4-yl(3-pyridyl))carboxamide]	5.32
CNC(=O)[C@H](CNC(=O)c1ccc(-c2ccccc2C#N)nc1NCCc1cccc(F)c1)NC(C)=O [(2S)-2-(acetylamino)-3-[(6-(2-cyanophenyl)-2-{[2-(3-fluorophenyl)ethyl]amino}(3-pyridyl))carbonylamino]-N-methylpropanamide]	5.26
Cn1cc(-c2ccc(C(=O)NCc3ccn(CCN)n3)c(NCCc3cccc(F)c3)n2)cn1 [N-{[1-(2-aminoethyl)pyrazol-3-yl]methyl}(2-{[2-(3-fluorophenyl)ethyl]amino}-6-(1-methylpyrazol-4-yl)(3-pyridyl))carboxamide]	5.73
CC(C)(C)OC(=O)NCC(=O)N1CCCC[C@H]1CNC(=O)c1ccc(-c2ccccc2C#N)nc1NCCc1cccc(F)c1 [N-[((2S)-1-{2-[(tert-butoxy)carbonylamino]acetyl}(2-piperidyl))methyl](6-(2-cyanophenyl)-2-{[2-(3-fluorophenyl)ethyl]amino}(3-pyridyl))carboxamide]	4.77
CC(C)(C)OC(=O)NCCn1ccc(CNC(=O)c2ccc(-c3cc[nH]n3)nc2NCCc2cccc(F)c2)n1 [N-[(1-{2-[(tert-butoxy)carbonylamino]ethyl}pyrazol-3-yl)methyl](2-{[2-(3-fluorophenyl)ethyl]amino}-6-pyrazol-3-yl(3-pyridyl))carboxamide]	4.92
N#Cc1ccccc1-c1ccc(C(=O)NC[C@H]2CCCN2C(=O)CCCN)c(NCCC2CCCCO2)n1 (stereo partly drawn)	5.69
O=C(NCc1cccnc1)c1ccc(-c2ccccc2)nc1NCCCc1ccccc1 [{6-phenyl-2-[(3-phenylpropyl)amino](3-pyridyl)}-N-(3-pyridylmethyl)carboxamide]	5.24
CCOC(=O)CCNC(=O)c1ccc(-c2ccccc2C#N)nc1NCCc1cccc(F)c1 [ethyl 3-[(6-(2-cyanophenyl)-2-{[2-(3-fluorophenyl)ethyl]amino}-3-pyridyl)carbonylamino]propanoate]	5.32
Cn1cc(-c2nc(NCCc3cccc(F)c3)c(C(=O)NCCCN)cc2F)cn1 [N-(3-aminopropyl)(5-fluoro-2-{[2-(3-fluorophenyl)ethyl]amino}-6-(1-methylpyrazol-4-yl)(3-pyridyl))carboxamide]	5.40
O=C(NCCc1cccnc1)c1ccc(-c2ccccc2)nc1NCCc1ccccc1 [{6-phenyl-2-[(2-phenylethyl)amino](3-pyridyl)}-N-(2-(3-pyridyl)ethyl)carboxamide]	5.51
O=C(NCc1ncc[nH]1)c1ccc(-c2ccccc2)nc1NCCc1ccccn1 [N-(imidazol-2-ylmethyl){6-phenyl-2-[(2-(2-pyridyl)ethyl)amino](3-pyridyl)}carboxamide]	5.21
CC(C)(C)OC(=O)NCCCN1CC(=O)N[C@H](CNC(=O)c2ccc(-c3ccccc3C#N)nc2NCCc2cccc(F)c2)C1 [N-[((2R)-4-{3-[(tert-butoxy)carbonylamino]propyl}-6-oxopiperazin-2-yl)methyl](6-(2-cyanophenyl)-2-{[2-(3-fluorophenyl)ethyl]amino}(3-pyridyl))carboxamide]	5.02
CN(C)C(n1cc(-c2ccc(C(=O)NC[C@H]3CCC(=O)N3CCCN)c(NCCc3cccc(F)c3)n2)cn1)=[N+](C)C	5.67

The next compounds have a higher pIC50 than those just listed; values first:

pIC50	Compound
6.61	COC(=O)N1CC[C@@H]1CNC(=O)c1ccc(-c2cn[nH]c2)nc1NCCc1cccc(F)c1 [methyl (2R)-2-{[(2-{[2-(3-fluorophenyl)ethyl]amino}-6-pyrazol-4-yl(3-pyridyl))carbonylamino]methyl}azetidinecarboxylate]
6.73	N#Cc1ccccc1-c1ccc(C(=O)NCCCC(N)=O)c(NCCc2cccc(F)c2)n1 [N-(3-carbamoylpropyl)(6-(2-cyanophenyl)-2-{[2-(3-fluorophenyl)ethyl]amino}(3-pyridyl))carboxamide]
6.28	COC(=O)CCC(=O)N1CC[C@@H]1CNC(=O)c1ccc(-c2ccccc2C#N)nc1NCCc1cccc(F)c1 [methyl 4-((2R)-2-{[(6-(2-cyanophenyl)-2-{[2-(3-fluorophenyl)ethyl]amino}(3-pyridyl))carbonylamino]methyl}azetidinyl)-4-oxobutanoate]
7.49	N#Cc1ccccc1-c1ccc(C(=O)NCc2ccnn2CCN)c(NCCc2cccc(F)c2)n1 [N-{[1-(2-aminoethyl)pyrazol-5-yl]methyl}(6-(2-cyanophenyl)-2-{[2-(3-fluorophenyl)ethyl]amino}(3-pyridyl))carboxamide]
7.33	Cn1cc(-c2ccc(C(=O)NCc3cccnc3)c(NCCc3cccc(F)c3)n2)c(C#N)n1 [(6-(3-cyano-1-methylpyrazol-4-yl)-2-{[2-(3-fluorophenyl)ethyl]amino}(3-pyridyl))-N-(3-pyridylmethyl)carboxamide]
6.04	COC(=O)CNC[C@H](N)CNC(=O)c1ccc(-c2ccccc2C#N)nc1NCCc1cccc(F)c1 [methyl 2-({(2S)-2-amino-3-[(6-(2-cyanophenyl)-2-{[2-(3-fluorophenyl)ethyl]amino}(3-pyridyl))carbonylamino]propyl}amino)acetate]
6.37	N#Cc1ccccc1-c1ccc(C(=O)NC[C@@H]2CCC(=O)N2CCCN)c(NCCc2cccc(F)c2)n1 [N-{[(2S)-1-(3-aminopropyl)-5-oxopyrrolidin-2-yl]methyl}(6-(2-cyanophenyl)-2-{[2-(3-fluorophenyl)ethyl]amino}(3-pyridyl))carboxamide]
7.32	O=C(NCc1cccnc1)c1ccc(-c2ccsc2)nc1NCCc1cccc(F)c1 [(2-{[2-(3-fluorophenyl)ethyl]amino}-6-(3-thienyl)(3-pyridyl))-N-(3-pyridylmethyl)carboxamide]
7.54	N#Cc1ccccc1-c1ccc(C(=O)NCc2ccccn2)c(NCCc2cccc(F)c2)n1 [(6-(2-cyanophenyl)-2-{[2-(3-fluorophenyl)ethyl]amino}(3-pyridyl))-N-(2-pyridylmethyl)carboxamide]
6.45	N#Cc1ccccc1-c1ccc(C(=O)N[C@@H]2CCCNC2=O)c(NCCc2cccc(F)c2)n1 [N-((3R)-2-oxo(3-piperidyl))(6-(2-cyanophenyl)-2-{[2-(3-fluorophenyl)ethyl]amino}(3-pyridyl))carboxamide]
7.09	N#Cc1ccccc1-c1ccc(C(=O)NCc2cncc(CO)c2)c(NCCc2cccc(F)c2)n1 [(6-(2-cyanophenyl)-2-{[2-(3-fluorophenyl)ethyl]amino}(3-pyridyl))-N-{[5-(hydroxymethyl)(3-pyridyl)]methyl}carboxamide]
5.76	N#Cc1ccccc1-c1ccc(C(=O)NCc2ccc(N3CCNCC3)nc2)c(NCCc2cccc(F)c2)n1 [(6-(2-cyanophenyl)-2-{[2-(3-fluorophenyl)ethyl]amino}(3-pyridyl))-N-[(6-piperazinyl(3-pyridyl))methyl]carboxamide]
6.28	Cn1cc(-c2nc(NCCc3cccc(F)c3)c(C(=O)NC[C@H]3CCN3C(=O)OC(C)(C)C)cc2F)cn1 [tert-butyl (2R)-2-{[(5-fluoro-2-{[2-(3-fluorophenyl)ethyl]amino}-6-(1-methylpyrazol-4-yl)(3-pyridyl))carbonylamino]methyl}azetidinecarboxylate]
6.80	Cn1cc(-c2nc(NCCc3cccc(F)c3)c(C(=O)NC[C@H]3CCC(=O)N3CCCN)cc2Cl)cn1 [N-{[(2R)-1-(3-aminopropyl)-5-oxopyrrolidin-2-yl]methyl}(5-chloro-2-{[2-(3-fluorophenyl)ethyl]amino}-6-(1-methylpyrazol-4-yl)(3-pyridyl))carboxamide]
6.02	NCCCN1C(=O)CC[C@@H]1CNC(=O)c1ccc(-c2cn[nH]c2)nc1NCCc1cccc(F)c1 [N-{[(2R)-1-(3-aminopropyl)-5-oxopyrrolidin-2-yl]methyl}(2-{[2-(3-fluorophenyl)ethyl]amino}-6-pyrazol-4-yl(3-pyridyl))carboxamide]
6.58	N#Cc1ccccc1-c1ccc(C(=O)NCCc2cnccn2)c(NCCc2cccc(F)c2)n1 [(6-(2-cyanophenyl)-2-{[2-(3-fluorophenyl)ethyl]amino}(3-pyridyl))-N-(2-pyrazin-2-ylethyl)carboxamide]
5.91	CC(C)C[C@@H](N)CNC(=O)c1ccc(-c2ccccc2C#N)nc1NCCc1cccc(F)c1 [N-((2R)-2-amino-4-methylpentyl)(6-(2-cyanophenyl)-2-{[2-(3-fluorophenyl)ethyl]amino}(3-pyridyl))carboxamide]
7.40	N#Cc1ccccc1-c1ccc(C(=O)NC[C@H]2CCN2C(=O)CO)c(NCCc2cccc(F)c2)n1 [N-{[(2R)-1-(2-hydroxyacetyl)azetidin-2-yl]methyl}(6-(2-cyanophenyl)-2-{[2-(3-fluorophenyl)ethyl]amino}(3-pyridyl))carboxamide]
6.60	NCc1cccc(CCNC(=O)c2ccc(-c3ccccc3)nc2NCCc2cccc(F)c2)n1 [N-{2-[6-(aminomethyl)(2-pyridyl)]ethyl}(2-{[2-(3-fluorophenyl)ethyl]amino}-6-phenyl(3-pyridyl))carboxamide]
5.92	C[C@@H](CNC(=O)c1ccc(-c2ccccc2C#N)nc1NCCc1cccc(F)c1)NS(C)(=O)=O [N-{(2S)-2-[(methylsulfonyl)amino]propyl}(6-(2-cyanophenyl)-2-{[2-(3-fluorophenyl)ethyl]amino}(3-pyridyl))carboxamide]
6.94	C[C@H](CNC(=O)c1cc(F)c(-c2cnn(C)c2)nc1NCCc1cccc(F)c1)NC(=O)[C@@H](N)CO
